# From US20200016200A1, “MODULATING CYTOTOXIC CELL LYTIC GRANULE POSITIONING TO PROMOTE DIFFUSE KILLING IN CELLULAR THERAPIES” (Baylor College of Medicine, priority 2016, published 2020)
# Entries after “also recorded” stand apart in the source; their conditions may differ.
# Tests used:
# NK92 cells = assay: Lytic granule convergence, fixed cell confocal microscopy (granule to MTOC distance); assay type: cell-based, human; settings: NK92 conjugated with K562 target cells; ciliobrevin D 100 μM vs vehicle
# Text: (§1) In previous studies, it was shown that granule convergence is dynein-dependent (Mentlik et al., 2010). To further characterize this, regarding the role for convergence in promoting killing efficiency and protecting bystanders, a small molecule dynein inhibitor ciliobrevin D (Firestone et al., 2012) was used to try and block the convergence of lytic granules to the MTOC from their dispersed localization in the cytoplasm. This would allow us to manipulate granule trafficking via blocking the motor protein function, instead of altering activating signal input. YTS, NK92 or eNK cells were treated with either ciliobrevin D or vehicle and conjugated with their respective target cells. […] As a separate measure of granule dispersion, the standard deviation of the granule to MTOC distance was calculated to show the degree of scatter of individual lytic granules. […] CD107a staining was additionally performed to test whether ciliobrevin D treatment affected the exocytosis of lytic granules; the proportion of eNK cells that degranulated after treatment with ciliobrevin D increased (FIG. 13A), whereas in the NK cell lines it decreased (FIG. 13B-13C). In all cases, however, degranulation still occurred in the presence of ciliobrevin D. […]
# (§2) Raw image sequences were analyzed using Volocity software. For lytic granules, the centroid of individual lytic granule was designated automatically based on the fluorescence intensity of the corresponding staining (LysoTracker Red or perforin) (Mentlik et al., 2010). For MTOC, in fixed-cell confocal experiments, the point with the highest fluorescence intensity of α-tubulin staining was denoted as the localization of MTOC; in live-cell experiments, the geometric centroid of all the lytic granules in the cell was used to provide a measure of proximity of lytic granule regions. Lytic granule convergence to the MTOC or to the centroid of all granules was measured as previously described (Mentlik et al., 2010). […]
# YTS cells = assay: as above; assay type: cell-based, human; settings: YTS conjugated with 721.221 target cells; ciliobrevin D 100 μM vs vehicle
# Text: as §1, §2
# eNK cells = assay: as above; assay type: cell-based, human; settings: eNK conjugated with K562 target cells; ciliobrevin D 100 μM vs vehicle
# Text: as §1, §2
# [1] = test system: CD19 CAR-bearing NK cells; assay: Live cell confocal microscopy of lytic granule positioning (LysoTracker Red); assay type: cell-based; settings: ciliobrevin D 50 μM vs DMSO, straight out of culture or 0.5 h post cytokine (IL-2) re-addition
# Description: FIG. 19. […] Live cell confocal microscopy of CD19 CAR-bearing NK cells treated with DMSO or ciliobrevin D (50 μM). Lytic granule positioning was tracked using LysoTracker Red. […] The culture medium for CD19 CAR NK cells contains IL-2. […] Quantitative analyses of lytic granule distance from the MTOC are shown as a feature of the degree of granule convergence in […].
# Specifically, the inventors have shown convergence in CD19 CAR T cells, CD19 CAR NK cells, PSCA CAR T cells, GD2 CAR NKT cells, HER2 CART cells, and glypican CAR T cells (FIG. 15A). Using a measurement of mean granule distance from the MTOC, CAR cells have varying degrees of converged lytic granules (FIG. 15B).
# GD2 CAR-bearing T cells = assay: Flow cytometry-based cytotoxicity assay, 48 h, bystander killing; assay type: cell-based; settings: ciliobrevin D 90 μM, vs DMSO
# Description: FIG. 23. Bystander killing with ciliobrevin D in the presence of GD2 CAR-bearing T cells. Flow cytometry-based cytotoxicity assay of GD2 CAR-bearing T cells treated with ciliobrevin D (90 μM) or DMSO control. BV173 cells were used as non-susceptible bystander cells to measure the degree of non-specific killing (Left). Daoy-CD19 cells were used as activating target cells (Right). After 48 h incubation, percent cell lysis and total cell number were measured using SYTOX Blue viability dye and flow cytometer cell counting beads, respectively. […] The non-specific lysis of BV173 cells increased after ciliobrevin D treatment while specific lysis of Daoy-CD19 cells was not affected.
# (§3) Similarly, compared to DMSO, ciliobrevin D-treated CD19 CAR NK cells lyse approximately 24%, 39% and 40% more bystander cells at the concentration of 12.5, 25 and 50 μM, respectively (FIG. 22). […] FIG. 23 and FIG. 24 are time-lapse images of videos of control ([…]) and ciliobrevin D-treated ([…]) CD19 CAR T cells. […] In the control group, however, lytic granules converge immediately upon interacting with the target cell and remain tightly clustered until target is killed by the CD19 CAR T cell as indicated by uptake of the SYTOX Blue viability dye.
# CD19 CAR T cell = assay: Live cell confocal microscopy of CD19 CAR T cell conjugated with a Daoy-CD19 target cell; assay type: cell-based
# Description: FIG. 25. […] Live cell confocal microscopy of a ciliobrevin D-treated CD19 CAR T cell conjugated with a Daoy-CD19 target cell. Cell mixtures were imaged every 90 sec for 60 min. Time point 1 (T1) represents the time when imaging started. Target cell death occurred rapidly at T5 (7.5 min) as indicated by uptake of SYTOX Blue viability dye and loss of adherence. […] Red, LysoTracker Red (lytic granules); blue, SYTOX Blue viability dye; green, CD19 CAR.
# as §3
compound,measurement,setting,value
"N#CC(C(=O)c1ccc(Cl)cc1Cl)=C1NC(=O)c2ccc(Cl)cc2N1 [ciliobrevin D, 2-(7-chloro-4-oxo-3,4-dihydroquinazolin-2(1H)-ylidene)-3-(2,4-dichlorophenyl)-3-oxopropanenitrile]",lytic granule convergence as determined by mean granule to MTOC distance,NK92 cells,blocked lytic granule convergence
same,lytic granule convergence as determined by mean granule to MTOC distance,YTS cells,blocked lytic granule convergence
same,lytic granule convergence as determined by mean granule to MTOC distance,eNK cells,blocked lytic granule convergence
same,stimulation-induced lytic granule convergence,[1],blocks stimulation-induced convergence
same,stimulation-induced lytic granule convergence,[1]; listed as Ciliobrevin D,dispersed lytic granules
same,specific lysis of Daoy-CD19 target cells,GD2 CAR-bearing T cells; 48 h incubation,remains similar to the DMSO control; also recorded: not affected
same,decrease of total number of BV173 (bystander) cells,GD2 CAR-bearing T cells; after 48 h incubation,~20%
same,total number of Daoy-CD19 (target) cells,GD2 CAR-bearing T cells; after 48 h incubation,does not change; also recorded: remained similar to the DMSO control
same,"time of target cell death (SYTOX Blue uptake, loss of adherence)","CD19 CAR T cell; ciliobrevin D-treated CD19 CAR T cell, Daoy-CD19 target",7.5 min
same,lytic granule positioning during conjugation and killing,"CD19 CAR T cell; ciliobrevin D-treated, imaged every 90 sec for 60 min",dispersedly localized lytic granules throughout the video; also recorded: remained dispersed throughout the video
